Test results published in patent publication US20180106727A1, “ULTRA-HIGH-SENSITIVE ASSAY OF PROTEIN AND NUCLEIC ACID AND KIT, AND NOVEL ENZYME SUBSTRATE” (priority 2011, published 2018).
Like-named read-outs stand apart in the source and are kept apart here.

What was measured:
β-galactosidase = β-galactosidase (Escherichia coli, UniProt P00722); details: β-Gal assay
Procedure: 0.1 M pyrophosphate buffer solution (pH 9.0); 1.2 mM thio-NAD; 3.6 mM NADH; 40 U/mL 3α-hydroxysteroid dehydrogenase
To a flat-bottomed microplate well, 25 μL of a phosphate buffer solution (pH 7.3) containing the standard substance (β-galactosidase) in a range of 0 to 200 pg/ml was added, and subsequently, 25 μL of Reaction Test Solution A was added to the well, respectively. The reaction solution was mixed, and the microplate was incubated at 37° C. for 60 minutes. Then, 50 μL of Reaction Test Solution B was added to each well, respectively, and the absorbance was measured for 30 minutes using a 405 nm filter with a microplate reader (MTP-500 manufactured by CORONA CORPORATION) while warming the microplate to 37° C. The amount of the absorbance change for 30 minutes was plotted with respect to the concentrations of the standard substance.
To a flat-bottomed microplate well, 50 μL of a phosphate buffer solution (pH 7.7) containing the standard substance (β-galactosidase) in a range of 0 to 250 pg/ml was added, and subsequently, 50 μL of Reaction Test Solution was added to each well, respectively. The absorbance was measured for 120 minutes using a 405 nm filter with a microplate reader (MTP-500 manufactured by CORONA CORPORATION) while warming the microplate to 37° C. The amount of the absorbance change for 120 minutes was plotted with respect to the concentrations of the standard substance.
0.1 M pyrophosphate buffer solution (pH 9.0); 4.8 mM thio-NAD; 0.4 mM NADH; 40 U/mL 3α-hydroxysteroid dehydrogenase
To a flat-bottomed microplate well, 25 μL of a phosphate buffer solution (pH 7.5) containing the standard substance (β-galactosidase) in a range of 0 to 200 pg/mL was added, and subsequently, 25 μL of Reaction Test Solution A was added to the well, respectively. The reaction solution was mixed, and the microplate was incubated at 37° C. for 60 minutes. Then, 50 μL of Reaction Test Solution B was added to each well, respectively, and the absorbance was measured for 30 minutes using a 405 nm filter with a microplate reader (MTP-500 manufactured by CORONA CORPORATION) while warming the microplate to 37° C. The amount of the absorbance change for 30 minutes was plotted with respect to the concentrations of the standard substance.
0.1 M pyrophosphate buffer solution (pH 9.8); 1.2 mM thio-NAD; 1 mM NADH; 40 U/mL 3α-hydroxysteroid dehydrogenase
To a flat-bottomed microplate well, 25 μL of a phosphate buffer solution (pH 7.5) containing the standard substance (β-galactosidase) in a range of 0 to 200 pg/mL was added, and subsequently, 25 μL of Reaction Test Solution A was added to the well, respectively. The reaction solution was mixed, and the microplate was incubated at 37° C. for 60 minutes.

[1] = test system: 3α-hydroxysteroid dehydrogenase; assay: Rotation numbers of thio-NAD cycling reactions with 3α-hydroxyandrostanes; type: biochemical
Procedure: The cycling system using thio-NAD(P) in the enzymatic cycling system is a unique cycling system that appeared relatively recently. With this system, the cycling is performed that is, thio-NAD(P)/thio-NAD(P)H using dehydrogenase (DH) with NAD(P)/NAD(P)H as a co-enzyme under conditions of coexistence of NAD(P)/NAD(P)H and its analog, and the amplification and the quantification are performed with thio-NAD(P)H (maximum absorption wavelength: 400 nm, molar absorption coefficient=11,900) as a substrate of dehydrogenase. The principle for measurement of the thio-NAD(P)cycling system is as described below.

[2] = test system: 3α-hydroxysteroid dehydrogenase; assay: Dehydrogenation reaction of androsterone, reaction rate with thio-NAD versus NAD as co-enzyme; type: biochemical
Excerpt: The substrate for the cycling is preferably those having fast enzyme reaction rate (having high activity for the substrate) and reacting even at a low concentration (having low Km value). In addition, a desirable property as the dehydrogenase is the reaction rate when using thio-NAD(P) as a co-enzyme. In the dehydrogenation reaction of androsterone by other many dehydrogenases, the reaction rate when thio-NAD is used as a co-enzyme is within several % of the reaction rate when NAD is used, while with 3α-hydroxysteroid dehydrogenase, the reaction rate with thio-NAD is about 59% of the reaction rate with NAD. Thus, 3α-hydroxysteroid dehydrogenase has a desirable property as the cycling enzyme of the present invention. Furthermore, widely used alkaline phosphatase (ALP) can be used as the labeling enzyme to be combined, and the combination with alkaline phosphatase is preferable also in a point of easy synthesis of a phosphate ester of an androsterone derivative at the position 3 that is a substrate of alkaline phosphatase.

[3] = conventional substrate, no cycling method printed
[4] = relative to 5α-Androsterone = 100
[5] = thio-NAD cycling, compound as substrate

β-galactosidase, sequence (P00722 2-1024): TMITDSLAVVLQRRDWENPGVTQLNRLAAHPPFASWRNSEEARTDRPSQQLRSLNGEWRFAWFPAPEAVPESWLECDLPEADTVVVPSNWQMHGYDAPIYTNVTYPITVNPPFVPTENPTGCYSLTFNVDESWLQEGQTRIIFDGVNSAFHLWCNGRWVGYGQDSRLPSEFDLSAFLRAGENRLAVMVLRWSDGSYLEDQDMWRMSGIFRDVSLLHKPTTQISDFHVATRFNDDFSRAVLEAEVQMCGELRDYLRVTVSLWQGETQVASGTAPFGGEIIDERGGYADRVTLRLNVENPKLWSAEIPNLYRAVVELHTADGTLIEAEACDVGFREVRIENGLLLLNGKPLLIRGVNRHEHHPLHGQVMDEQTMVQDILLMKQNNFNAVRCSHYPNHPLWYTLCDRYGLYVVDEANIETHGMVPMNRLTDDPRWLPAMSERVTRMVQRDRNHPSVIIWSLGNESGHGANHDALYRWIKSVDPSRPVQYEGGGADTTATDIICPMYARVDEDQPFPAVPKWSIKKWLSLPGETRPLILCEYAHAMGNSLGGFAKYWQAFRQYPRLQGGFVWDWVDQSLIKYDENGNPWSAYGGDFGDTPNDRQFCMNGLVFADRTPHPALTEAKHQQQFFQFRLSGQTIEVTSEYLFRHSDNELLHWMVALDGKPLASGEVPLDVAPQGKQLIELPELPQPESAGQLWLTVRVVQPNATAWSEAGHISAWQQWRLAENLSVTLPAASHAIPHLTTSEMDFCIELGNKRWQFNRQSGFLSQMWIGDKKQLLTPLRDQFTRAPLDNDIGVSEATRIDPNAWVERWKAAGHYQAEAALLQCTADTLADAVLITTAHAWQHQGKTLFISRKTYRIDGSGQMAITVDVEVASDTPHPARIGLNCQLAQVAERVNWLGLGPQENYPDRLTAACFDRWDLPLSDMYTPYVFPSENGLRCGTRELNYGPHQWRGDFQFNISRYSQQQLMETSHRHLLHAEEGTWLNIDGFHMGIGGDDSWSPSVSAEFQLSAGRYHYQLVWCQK

## Cc1cc(=O)oc2cc(O[C@@H]3O[C@H](CO)[C@H](O)[C@H](O)[C@H]3O)ccc12 [4-MUG, reference compound]
β-galactosidase; [3]
  Detection limit: 9.76e-18 mol
  Quantification limit: 3.25e-17 mol

## C=C1CC[C@H]2[C@@H]3CC[C@H]4C[C@H](O)CC[C@]4(C)[C@H]3CC[C@]12C [5α-17-CH2, 3α-Hydroxy-17-methylene-5α-Androstane]
[1]; [4]
  Rotation number, Relative value (%): 49%
[1]; [5]
  Rotation number of cycling reaction: 308 Cycle/min

## C[C@H]1CC[C@H]2[C@@H]3CC[C@H]4C[C@H](O)CC[C@]4(C)[C@H]3CC[C@]12C [5α-17-CH3, 3α-Hydroxy-17β-methyl-5α-Androstane]
[1]; [4]
  Rotation number, Relative value (%): 32%
[1]; [5]
  Rotation number of cycling reaction: 200 Cycle/min

## C[C@@]12CCC[C@H]1[C@@H]1CC[C@H]3C[C@H](O)CC[C@]3(C)[C@H]1CC2 [5α-17-deoxo, 3α-Hydroxy-5α-Androstane]
[1]; [4]
  Rotation number, Relative value (%): 39%
[1]; [5]
  Rotation number of cycling reaction: 241 Cycle/min

## C[C@]12CC[C@@H](O[C@@H]3O[C@H](CO)[C@H](O)[C@H](O)[C@H]3O)C[C@@H]1CC[C@@H]1[C@@H]2CC[C@]2(C)C(=O)CC[C@@H]12 [5α-AG, 5α-androsterone 3-β-galactoside]
β-galactosidase; Two-steps
  Detection limit: 3.89e-19 mol
  Quantification limit: 1.3e-18 mol

## C[C@]12CC[C@@H](O)C[C@@H]1CC[C@@H]1[C@@H]2CC[C@]2(C)C(=O)CC[C@@H]12 [5α-Androsterone, reference compound]
[1]
  Rotation number, Relative value (%): 100%

## C[C@]12CCC(=O)C[C@@H]1CC[C@@H]1[C@@H]2CC[C@]2(C)[C@@H](O)CC[C@@H]12 [5α-DHT, 5α-Dihydrotestosterone, reference compound]
[1]
  Rotation number of cycling reaction: 535 Cycle/min
  Rotation number, Relative value (%): 86%

## C[C@H]1CC[C@H]2[C@@H]3CC[C@@H]4C[C@H](O)CC[C@]4(C)[C@H]3CC[C@]12C [5β-17-CH3, 3α-Hydroxy-17β-methyl-5β-Androstane]
[1]; [4]
  Rotation number, Relative value (%): 18%
[1]; [5]
  Rotation number of cycling reaction: 114 Cycle/min

## CO[C@H]1CC[C@H]2[C@@H]3CC[C@@H]4C[C@H](O)CC[C@]4(C)[C@H]3CC[C@]12C [5β-17β-OCH3]
[1]; [4]
  Rotation number, Relative value (%): 74%
[1]; [5]
  Rotation number of cycling reaction: 458 Cycle/min

## C[C@]12CC[C@@H](O[C@@H]3O[C@H](CO)[C@H](O)[C@H](O)[C@H]3O)C[C@H]1CC[C@@H]1[C@@H]2CC[C@]2(C)C(=O)CC[C@@H]12 [5β-AG, 5β-Androsterone-3β-D-Galactoside]
β-galactosidase; One-step
  Detection limit: 3.31e-19 mol
  Quantification limit: 1.1e-18 mol
β-galactosidase; Two-steps
  Detection limit: 7.48e-20 mol
  Quantification limit: 2.49e-19 mol

## C[C@]12CC[C@@H](O)C[C@H]1CC[C@@H]1[C@@H]2CC[C@]2(C)C(=O)CC[C@@H]12 [5β-Androsterone, reference compound]
[1]
  Rotation number of cycling reaction: 384 Cycle/min
  Rotation number, Relative value (%): 62%

## CO[C@H]1CC[C@H]2[C@@H]3CC[C@@H]4C[C@H](O[C@@H]5O[C@H](CO)[C@H](O)[C@H](O)[C@H]5O)CC[C@]4(C)[C@H]3CC[C@]12C [17-OMe 5β-AG]
β-galactosidase; One-step
  Detection limit: 3.21e-19 mol
  Quantification limit: 1.07e-18 mol
β-galactosidase; Two-steps
  Detection limit: 1.09e-19 mol
  Quantification limit: 3.64e-19 mol

## C[C@H](CCC(=O)NCC(=O)O)[C@H]1CC[C@H]2[C@@H]3[C@H](O)C[C@@H]4C[C@H](O)CC[C@]4(C)[C@H]3CC[C@]12C [Glycochenodeoxycholate, Sodium glycochenodoxycholate, reference compound]
[1]; [4]
  Rotation number, Relative value (%): 21%
[1]; [5]
  Rotation number of cycling reaction: 129 Cycle/min

## O=[N+]([O-])c1ccccc1O[C@@H]1O[C@H](CO)[C@H](O)[C@H](O)[C@H]1O [ONPG, o-Nitrophenyl β-D-Galactopyranoside, reference compound]
β-galactosidase; [3]
  Detection limit: 4.5e-17 mol
  Quantification limit: 1.5e-16 mol

## C[C@]12CC[C@@H](OP(=O)(O)O)C[C@@H]1CC[C@@H]1[C@@H]2CC[C@]2(C)C(=O)CC[C@@H]12 [androsterone 3-phosphate, reference compound]
[1]
  Effect of the substrate on the cycling reaction: inhibition of the substrate on the cycling reaction

## NC(=S)c1ccc[n+]([C@@H]2O[C@H](COP(=O)([O-])OP(=O)(O)OC[C@H]3O[C@@H](n4cnc5c(N)ncnc54)[C@H](O)[C@@H]3O)[C@@H](O)[C@H]2O)c1 [thio-NAD]
[2]
  Reaction rate with thio-NAD relative to the reaction rate with NAD: about 59%
